Patent publication US10889543B2, “Fine-tune modulators of neuronal excitability for neuropsychiatric disorders” (THE BOARD OF REGENTS OF THE UNIVERSITY OF TEXAS SYSTEM, priority 2016, dated 2021)
Residues, ends and D or L forms follow the SMILES beside them. *: point of attachment. Fmoc = O=C(OCC1c2ccccc2-c2ccccc21)*; Cbz = O=C(OCc1ccccc1)*; Boc = CC(C)(C)OC(=O)*

target: T1, FGF14:Nav1.6 complex (Homo sapiens, UniProt Q92915); experiment: Split-luciferase complementation assay (LCA) in HEK293 cells expressing CLuc-FGF14 and CD4-Nav1.6-NLuc; format: cell-based; conditions: 50 μM, normalized to DMSO control
T1 construct: FGF14 and the C-tail of Nav1.6 channels are fused to vectors expressing CLuc and NLuc luciferase reporter; expressed in transfected cells; host or cells: HEK293, transient transfection
T1 sequence (Q92915 1-252 isoform Q92915-2): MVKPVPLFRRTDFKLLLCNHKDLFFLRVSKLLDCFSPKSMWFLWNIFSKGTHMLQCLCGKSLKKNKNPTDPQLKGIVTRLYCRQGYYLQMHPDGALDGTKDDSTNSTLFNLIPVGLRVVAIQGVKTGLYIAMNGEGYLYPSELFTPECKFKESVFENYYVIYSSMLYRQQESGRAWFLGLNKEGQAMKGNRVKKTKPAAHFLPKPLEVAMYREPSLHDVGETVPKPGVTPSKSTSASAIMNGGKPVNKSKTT
Description: Detailed methods for LCA can be found is known in the art. See e.g., Shavkunov A. S., et al., Methods in Molecular Biology 1278:497-514 (2015). Statistical values were calculated as mean and standard error of the mean (mean±SEM), unless otherwise specified. The statistical significance (*p<0.05) of different groups was determined by Student's t-test, one-way ANOVA with post-hoc Bonferroni's method or Kruskal-Wallis one-way ANOVA on ranks with post-hoc Dunn's method using Sigma Stat (San Jose, Calif.) and Graph PrismR (La Jolla, Calif.) software. Dose-response modulation was determined by: y=START+(END−START)*x^n/(k^n+x^n) where k, Michaelis constant; n, cooperative sites; x, independent variable; y, dependable variable.
To monitor the role of compounds of the invention in the FGF14:Nav1.6 complex, certain embodiments of the invention were screened by split-luciferase complementation assay (LCA) where FGF14 and the C-tail of Nav1.6 channels are fused to vectors expressing CLuc and NLuc luciferase reporter. Compounds of the invention, as exemplified by, compounds ZL0141, ZL0148, ZL0181, and ZL0182 (see FIG. 1) were tested at 50 μM in HEK293 cells expressing CLuc-FGF14 and CD4:Nav1.6-NLuc. […] None of the tested compounds interfered with the full-length luciferase enzyme (FIG. 2B, Chart C). Dose-response studies were then performed with compounds ZL0148, ZL0181, and ZL0182 against the FGF14:Nav1.6 complex.

Compound	luminescence response compared to control (DMSO)
CC(=O)N[C@@H](Cc1ccccc1)C(=O)N[C@@H](CC(C)C)C(=O)N1CCC[C@H]1C(=O)N[C@@H](CCCCNC(=O)OCC1c2ccccc2-c2ccccc21)C(=O)O [ZL0182, Ac-Phe-Leu-Pro-Lys(Fmoc)-OH] (Ac-FLPK(Fmoc)-OH)	129±13%
CC(C)C[C@H](NC(=O)[C@H](Cc1ccccc1)NC(=O)OCc1ccccc1)C(=O)N1CCC[C@H]1C(N)=O [ZL0141, Z-Phe-Leu-Pro-NH2] (Cbz-Phe-Leu-Pro-NH2)	103±14%
CC(=O)N[C@@H](Cc1ccccc1)C(=O)N[C@@H](CC(C)C)C(=O)N[C@@H](CCCCNC(=O)OC(C)(C)C)C(N)=O [ZL0148, Ac-Phe-Leu-Lys(Boc)-NH2] (Ac-Phe-Leu-Lys(Boc)-NH2)	132±9%
